According to the supplement of paper PMC11061612:

Assays:
Test in all cases: combination Emax (second highest fraction inhibited in the dose matrix, 72 h); higher = more inhibition; extreme values may be limits of the assay
[1] = tested on: LS-513 (Colorectal Carcinoma)
Summary of the method: (§1)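 Cell lines grown in DMEM/F12 or RPMI with 10% FBS were plated in 1536-well plates and held 24 hours at 37°C, 5% CO2 before 72 hours of exposure to two-drug dose matrices, with DMSO typically at 0.2%. CellTiter-Glo 2.0 luminescence gave viability, which was converted to inhibition. Vehicle wells were set to 0 and blank wells to 1. Combination Emax is the second-highest inhibition in the matrix, and Bliss excess is the observed combination effect minus the expected EA + EB − EA·EB, where EA and EB are the single-agent effects.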

[2] = tested on: DOV13 (Ovarian Carcinoma)
Summary of the method: as §1

[3] = tested on: SW780 (Bladder Carcinoma)
Summary of the method: as §1

[4] = tested on: KARPAS-1106P (B-Cell Non-Hodgkin's Lymphoma)
Summary of the method: as §1

[5] = tested on: TE-5 (Esophageal Squamous Cell Carcinoma)
Summary of the method: as §1

[6] = tested on: C3A (Hepatocellular Carcinoma)
Summary of the method: as §1

[7] = tested on: SW1783 (Low Grade Glioma)
Summary of the method: as §1

[8] = tested on: SW756 (Cervical Carcinoma)
Summary of the method: as §1

[9] = tested on: SW1990 (Pancreatic Carcinoma)
Summary of the method: as §1

[10] = tested on: NCI-H1694 (Small Cell Lung Carcinoma)
Summary of the method: as §1

[11] = tested on: SN12C (Kidney Carcinoma)
Summary of the method: as §1

[12] = tested on: NCI-H1793 (Lung Adenocarcinoma)
Summary of the method: as §1

[13] = tested on: SW1088 (Low Grade Glioma)
Summary of the method: as §1

[14] = tested on: JiyoyeP-2003 (Burkitt's Lymphoma)
Summary of the method: as §1

[15] = tested on: KATOIII (Gastric Carcinoma)
Summary of the method: as §1

[16] = tested on: NCI-H1299 (Non-Small Cell Lung Carcinoma)
Summary of the method: as §1

[17] = tested on: MDA-MB-157 (Breast Carcinoma)
Summary of the method: as §1

[18] = tested on: SK-N-FI (Neuroblastoma)
Summary of the method: as §1

[19] = tested on: 697 (B-Lymphoblastic Leukemia)
Summary of the method: as §1

[20] = tested on: MFH-ino (Other Solid Carcinomas)
Summary of the method: as §1

Structure (SMILES) | combination Emax [1] | combination Emax [2] | combination Emax [3] | combination Emax [4] | combination Emax [5] | combination Emax [6] | combination Emax [7] | combination Emax [8] | combination Emax [9] | combination Emax [10] | combination Emax [11] | combination Emax [12] | combination Emax [13] | combination Emax [14] | combination Emax [15] | combination Emax [16] | combination Emax [17] | combination Emax [18] | combination Emax [19] | combination Emax [20]
CN(C)CCCOc1ccc(-c2ccc3ncc4c(c3c2)n(C2CCOCC2)c(=O)n4C)cn1 [AZD0156] + C=CCn1c(=O)c2cnc(Nc3ccc(N4CCN(C)CC4)cc3)nc2n1-c1cccc(C(C)(C)O)n1 [AZD1775] (first compound max 1 µM, partner max 1 µM) | 0.827 | 0.814 | 0.124 | 0.874 | 0.352 | 0.524 | 0.179 | 0.379 | 0.483 | 0.367 | 0.242 | 0.387 | 0.425 | 0.937 | 0.213 | 0.742 | 0.673 | 0.722 | 1 | 0.169
CN(C)CCCOc1ccc(-c2ccc3ncc4c(c3c2)n(C2CCOCC2)c(=O)n4C)cn1 [AZD0156] + CCN(CCO)CCCOc1ccc2c(Nc3cc(CC(=O)Nc4cccc(F)c4)[nH]n3)ncnc2c1 [AZD2811] (first compound max 1 µM, 7x7, partner max 1 µM) | 0.508 | 0.493 | 0.205 | 0.244 | 0.1 | 0.129 | 0.0598 | 0.125 | 0.0964 | 0.278 | 0.12 | 0.182 | 0.364 | 0.408 | 0.0129 | 0.251 | 0.153 | 0.114 | 1 | 0.136
CN(C)CCCOc1ccc(-c2ccc3ncc4c(c3c2)n(C2CCOCC2)c(=O)n4C)cn1 [AZD0156] + C[C@@H]1COCCN1C2=NC(=NC(=C2)C3(CC3)[S@](=N)(=O)C)C4=C5C=CNC5=NC=C4 [AZD6738] (first compound max 1 µM, 7x7, partner max 10 µM) | 0.822 | 0.888 | 0.138 | 0.752 | 0.481 | 0.584 | 0.257 | 0.322 | 0.552 | 0.711 | 0.114 | 0.455 | 0.57 | 0.955 | 0.519 | 0.746 | 0.914 | 0.793 | 1 | 0.403
CN(C)CCCOc1ccc(-c2ccc3ncc4c(c3c2)n(C2CCOCC2)c(=O)n4C)cn1 [AZD0156] + O=C(c1cc(Cc2n[nH]c(=O)c3ccccc23)ccc1F)N1CCN(C(=O)C2CC2)CC1 [Olaparib] (first compound max 3 µM, partner max 3 µM) | 0.267 | 0.608 | 0.183 | 0.551 | 0.302 | 0.22 | 0.401 | 0.155 | 0.16 | – | 0.102 | 0.496 | 0.417 | 0.311 | 0.195 | 0.335 | 0.27 | 0.148 | 0.97 | 0.256
C=CCn1c(=O)c2cnc(Nc3ccc(N4CCN(C)CC4)cc3)nc2n1-c1cccc(C(C)(C)O)n1 [AZD1775] + C1CN(CCC1(C(=O)N[C@@H](CCO)C2=CC=C(C=C2)Cl)N)C3=NC=NC4=C3C=CN4 [Capivasertib] (first compound max 3 µM, partner max 3 µM) | 0.81 | 0.775 | 0.399 | 0.909 | 0.66 | 0.62 | 0.688 | 0.555 | 0.584 | – | 0.359 | 0.428 | 0.723 | 0.931 | 0.476 | 0.793 | 0.837 | 0.628 | 1 | 0.35
C=CCn1c(=O)c2cnc(Nc3ccc(N4CCN(C)CC4)cc3)nc2n1-c1cccc(C(C)(C)O)n1 [AZD1775] + C[C@@H]1COCCN1C2=NC(=NC(=C2)C3(CC3)[S@](=N)(=O)C)C4=C5C=CNC5=NC=C4 [AZD6738] (first compound max 1 µM, partner max 10 µM) | 0.87 | 0.928 | 0.246 | 0.886 | 0.577 | 0.567 | 0.41 | 0.425 | 0.623 | 0.883 | 0.408 | 0.548 | 0.684 | 0.982 | 0.507 | 0.889 | 0.947 | 0.857 | 1 | 0.536
CN(CCO)CC[C@H](CSc1ccccc1)Nc1ccc(S(=O)(=O)NC(=O)c2ccc(N3CCC([C@@H](O)c4ccccc4-c4ccc(Cl)cc4)CC3)cc2)cc1S(=O)(=O)C(F)(F)F [AZD4320] + C[C@@H]1COCCN1C2=NC(=NC(=C2)C3(CC3)[S@](=N)(=O)C)C4=C5C=CNC5=NC=C4 [AZD6738] (first compound max 1 µM, 7x7, partner max 10 µM) | 0.821 | 0.974 | 0.506 | 0.849 | 0.77 | 0.52 | 0.669 | 0.381 | 0.845 | 0.974 | 0.328 | 0.498 | 0.586 | 0.972 | 0.474 | – | 0.94 | 0.765 | 1 | 0.51
COc1nnc2ccc(N3CCC(c4ccc(OCCN5CCN(C)C(=O)[C@H]5C)cc4)CC3)nn12 [AZD5153] + CN(CC[C@H](CSC1=CC=CC=C1)NC2=C(C=C(C=C2)S(=O)(=O)NC(=O)C3=CC=C(C=C3)N4CCC(CC4)[C@H](C5=CC=CC=C5C6=CC=C(C=C6)Cl)O)S(=O)(=O)C(F)(F)F)CCO [AZD4320] (first compound max 1 µM, 7x7, partner max 1 µM) | – | – | 0.369 | – | – | 0.489 | – | 0.34 | – | 1 | – | 0.323 | – | 0.893 | – | – | – | – | 1 | –
Cc1c2c(nn1C)CSCc1cc(n(C)n1)CSc1cc(c3ccccc3c1)OCCCc1c(C(=O)O)n(C)c3c-2c(Cl)ccc13 [AZD5991] + C=CCn1c(=O)c2cnc(Nc3ccc(N4CCN(C)CC4)cc3)nc2n1-c1cccc(C(C)(C)O)n1 [AZD1775] (first compound max 1 µM, partner max 1 µM) | 0.871 | 0.829 | 0.172 | 0.997 | 0.536 | – | 0.322 | 0.427 | 0.537 | 0.961 | 0.358 | 0.488 | 0.352 | 0.987 | 0.237 | 0.83 | 0.958 | 0.744 | 1 | 0.31
Cc1c2c(nn1C)CSCc1cc(n(C)n1)CSc1cc(c3ccccc3c1)OCCCc1c(C(=O)O)n(C)c3c-2c(Cl)ccc13 [AZD5991] + Cc1cc2ncnn2cc1Nc1ncc2c(n1)n(C1CCOCC1)c(=O)n2C [AZD7648] (first compound max 1 µM, 7x7, partner max 10 µM) | 0.319 | 0.458 | – | 0.939 | 0.356 | 0.248 | 0.256 | 0.196 | 0.218 | 0.998 | 0.269 | 0.41 | 0.423 | 0.784 | 0.178 | 0.34 | 0.708 | 0.414 | 1 | 0.348
CC(=O)c1c(C)c2cnc(Nc3ccc(N4CCNCC4)cn3)nc2n(C2CCCC2)c1=O [Palbociclib] + CN(CC[C@H](CSC1=CC=CC=C1)NC2=C(C=C(C=C2)S(=O)(=O)NC(=O)C3=CC=C(C=C3)N4CCC(CC4)[C@H](C5=CC=CC=C5C6=CC=C(C=C6)Cl)O)S(=O)(=O)C(F)(F)F)CCO [AZD4320] (first compound max 10 µM, 7x7, partner max 1 µM) | – | – | 0.395 | – | – | 0.639 | – | 0.293 | – | 0.941 | – | 0.337 | – | 0.795 | – | – | – | – | 1 | –
CCc1c2c(nc3ccc(O)cc13)-c1cc3c(c(=O)n1C2)COC(=O)[C@]3(O)CC [SN-38] + O=C(c1cc(Cc2n[nH]c(=O)c3ccccc23)ccc1F)N1CCN(C(=O)C2CC2)CC1 [Olaparib] (first compound max 0.3 µM, 7x7, partner max 10 µM) | 0.665 | 0.939 | – | 0.943 | 0.758 | 0.665 | 0.862 | 0.766 | 0.419 | – | 0.738 | – | 0.434 | 0.947 | 0.252 | 0.544 | 0.725 | 0.518 | 1 | 0.652
C[C@@H](c1ccc2nccn2c1)n1nnc2ncc(-c3cnn(C)c3)nc21 [Savolitinib] + CN(CC[C@H](CSC1=CC=CC=C1)NC2=C(C=C(C=C2)S(=O)(=O)NC(=O)C3=CC=C(C=C3)N4CCC(CC4)[C@H](C5=CC=CC=C5C6=CC=C(C=C6)Cl)O)S(=O)(=O)C(F)(F)F)CCO [AZD4320] (first compound max 1 µM, 7x7, partner max 1 µM) | – | – | 0.393 | – | – | 0.183 | – | 0.246 | – | 0.622 | – | 0.168 | – | 0.439 | – | – | – | – | 1 | –
